Assay results from patent US20210137117A1, “HERBICIDAL MIXTURES” (Bayer Aktiengesellschaft, priority 2017, published 2021).
“And” between values parts separate entries of the source, which are not always exact repeats. Identical values can stand only once.

Assays:
Experiment in all cases: Pre-emergence action against weeds (greenhouse)
Assay type in all cases: in vivo
[1] = system: RAPRA (Raphanus raphanistrum); conditions: for Herbicidal action RAPRA: pre-emergence
Source text: (§1) Depending on the trial conditions, the soil of the standard field soil is sterile or not sterile.
(§2) The amount of water used for spray application was 300l/ha.
RAPRA (Raphanus raphanistrum)—Charlock, jointed
(§3) Insofar as herbicidal effects of the compositions according to the invention compared to mixtures of the prior art or compared to components applied individually against economically important mono- and dicotyledonous harmful plants were the centre of attention, the synergistic herbicidal activities were calculated using Colby's formula (cf. S. R. Colby; Weeds 15 (1967), 20-22): […]

[2] = system: AVEFA (Avenafatua); conditions: for Herbicidal action AVEFA: pre-emergence
Source text: as §1, §2
AVEFA (Avenafatua)—Wild oat
as §3

[3] = system: PAPRH (Papaver rhoeas)
Source text: as §1, §2
PAPRH (Papaver rhoeas)—Poppy, common
as §3

[4] = system: BROST (Bromus sterilis); conditions: for Herbicidal action BROST: pre-emergence
Source text: as §1, §2
BROST (Bromus sterilis)—Bromegrass, barren
as §3

[5] = system: LOLRI—sensitive (Lolium rigidum); conditions: for Herbicidal action LOLRI sensitive: pre-emergence
Source text: as §1, §2
LOLRI—sensitive (Lolium rigidum) sensitive to customary herbicidally active compounds.
as §3

[6] = system: EMEAU (Emex australis); conditions: for Herbicidal action EMEAU: pre-emergence
Source text: as §1, §2
EMEAU (Emex australis)—Cathead
as §3

[7] = system: TRZAS (Triticum aestivum); conditions: for Herbicidal action (crop damage) TRZAS: pre-emergence
Source text: as §1, §2
TRZAS (Triticum aestivum)—Wheat, spring
as §3

[8] = system: CENCY (Centaurea cyanus); conditions: for Herbicidal action CENCY: pre-emergence
Source text: as §1, §2
CENCY (Centaurea cyanus)—Cornflower
as §3

[9] = system: HORVS (Hordeum vulgare); conditions: for Herbicidal action (crop damage) HORVS: pre-emergence
Source text: as §1, §2
HORVS (Hordeum vulgare)—Barley, spring
as §3

[10] = system: SORHA (Sorghum halepense); conditions: for Herbicidal action SORHA: pre-emergence
Source text: as §1, §2
SORHA (Sorghum halepense)—Johnsongrass
as §3

[11] = system: ALOMY—sensitive (Alopecurus myosuroides); conditions: for Herbicidal action ALOMY sensitive: pre-emergence
Source text: as §1, §2
ALOMY—sensitive (Alopecurus myosuroides) sensitive to customary herbicidally active compounds.
as §3

[12] = system: ALOMY—resistant (Alopecurus myosuroides); conditions: for Herbicidal action ALOMY resistant: pre-emergence
Source text: as §1, §2
ALOMY—resistant (Alopecurus myosuroides) resistant to herbicidally active compounds of the HRAC groups A and B; population mixture of field origin having increased metabolic resistance (IMR) and some target site resistance (TSR).
as §3

[13] = system: VERHE (Veronica hederaefolia); conditions: for Herbicidal action VERHE: pre-emergence
Source text: as §1, §2
VERHE (Veronica hederaefolia)—Speedwell, iveleaf
as §3

[14] = system: BRSNW (Brassica napus); conditions: for Herbicidal action BRSNW: pre-emergence
Source text: as §1, §2
BRSNW (Brassica napus)—Rape, winter
as §3

[15] = system: LOLRI—resistant (Lolium rigidum); conditions: for Herbicidal action LOLRI resistant: pre-emergence
Source text: as §1, §2
LOLRI—resistant (Lolium rigidum) resistant to herbicidally active compounds of the HRAC groups A and B; population mixture of field origin having increased metabolic resistance (IMR) and some target site resistance (TSR).
as §3

## CC1(C)CON(Cc2ccc(Cl)cc2Cl)C1=O [2-[(2,4-dichlorophenyl)methyl]-4,4-dimethyl-3-isoxazolidinone]
[1]; 10 g AS/ha
  herbicidal action: 0%
[1]; 25 g AS/ha
  herbicidal action: 5%
[1]; 50 g AS/ha
  herbicidal action: 20%
[1]; 100 g AS/ha
  herbicidal action: 40%
[1]; 200 g AS/ha
  herbicidal action: 50%
[1]; 250 g AS/ha
  herbicidal action: 60%
[1]; 400 g AS/ha
  herbicidal action: 80%
[1]; 500 g AS/ha
  herbicidal action: 90%
[1]; dose 100 g AS/ha
  Herbicidal action RAPRA: 40
[2]; 10 g AS/ha
  herbicidal action: 0%
[2]; 25 g AS/ha
  herbicidal action: 5%
[2]; 50 g AS/ha
  herbicidal action: 15%
[2]; 100 g AS/ha
  herbicidal action: 50%
[2]; 200 g AS/ha
  herbicidal action: 70%
[2]; 250 g AS/ha
  herbicidal action: 75%
[2]; 400 g AS/ha
  herbicidal action: 75%
[2]; 500 g AS/ha
  herbicidal action: 80%
[2]; dose 100 g AS/ha
  Herbicidal action AVEFA: 50
[3]; 250 g AS/ha
  herbicidal action: 95%
[3]; 400 g AS/ha
  herbicidal action: 95%
[3]; 500 g AS/ha
  herbicidal action: 95%
[4]; 10 g AS/ha
  herbicidal action: 0%
[4]; 25 g AS/ha
  herbicidal action: 0%
[4]; 50 g AS/ha
  herbicidal action: 0%
[4]; 100 g AS/ha
  herbicidal action: 20%
[4]; 200 g AS/ha
  herbicidal action: 30%
[4]; 250 g AS/ha
  herbicidal action: 65%
[4]; 400 g AS/ha
  herbicidal action: 70%
[4]; 500 g AS/ha
  herbicidal action: 75%
[4]; dose 100 g AS/ha
  Herbicidal action BROST: 20
[5]; 10 g AS/ha
  herbicidal action: 0%
[5]; 25 g AS/ha
  herbicidal action: 30%
[5]; 50 g AS/ha
  herbicidal action: 70%
[5]; 100 g AS/ha
  herbicidal action: 70%
[5]; 200 g AS/ha
  herbicidal action: 90%
[5]; 250 g AS/ha
  herbicidal action: 95%
[5]; 400 g AS/ha
  herbicidal action: 95%
[5]; 500 g AS/ha
  herbicidal action: 95%
[5]; dose 100 g AS/ha
  Herbicidal action LOLRI sensitive: 70
[6]; 10 g AS/ha
  herbicidal action: 0%
[6]; 25 g AS/ha
  herbicidal action: 0%
[6]; 50 g AS/ha
  herbicidal action: 10%
[6]; 200 g AS/ha
  herbicidal action: 40%
[6]; 250 g AS/ha
  herbicidal action: 60%
[6]; 400 g AS/ha
  herbicidal action: 70%
[6]; 500 g AS/ha
  herbicidal action: 70%
[6]; dose 100 g AS/ha
  Herbicidal action EMEAU: 20
[7]; 10 g AS/ha
  herbicidal action: 0%
[7]; 25 g AS/ha
  herbicidal action: 0%
[7]; 50 g AS/ha
  herbicidal action: 0%
[7]; 100 g AS/ha
  herbicidal action: 5%
[7]; 200 g AS/ha
  herbicidal action: 40%
[7]; 250 g AS/ha
  herbicidal action: 50%
[7]; 400 g AS/ha
  herbicidal action: 60%
[7]; 500 g AS/ha
  herbicidal action: 70%
[7]; dose 100 g AS/ha
  Herbicidal action (crop damage) TRZAS: 5
[8]; 10 g AS/ha
  herbicidal action: 0%
[8]; 25 g AS/ha
  herbicidal action: 0%
[8]; 50 g AS/ha
  herbicidal action: 10%
[8]; 100 g AS/ha
  herbicidal action: 70%
[8]; 200 g AS/ha
  herbicidal action: 88%
[8]; dose 100 g AS/ha
  Herbicidal action CENCY: 70
[9]; 10 g AS/ha
  herbicidal action: 0%
[9]; 25 g AS/ha
  herbicidal action: 2%
[9]; 50 g AS/ha
  herbicidal action: 5%
[9]; 100 g AS/ha
  herbicidal action: 15%
[9]; 200 g AS/ha
  herbicidal action: 40%
[9]; 250 g AS/ha
  herbicidal action: 50%
[9]; 400 g AS/ha
  herbicidal action: 60%
[9]; 500 g AS/ha
  herbicidal action: 60%
[9]; dose 100 g AS/ha
  Herbicidal action (crop damage) HORVS: 15
[10]; 10 g AS/ha
  herbicidal action: 0%
[10]; 25 g AS/ha
  herbicidal action: 0%
[10]; 50 g AS/ha
  herbicidal action: 30%
[10]; 100 g AS/ha
  herbicidal action: 40%
[10]; 200 g AS/ha
  herbicidal action: 60%
[10]; dose 100 g AS/ha
  Herbicidal action SORHA: 40
[11]; 10 g AS/ha
  herbicidal action: 0%
[11]; 25 g AS/ha
  herbicidal action: 0%
[11]; 50 g AS/ha
  herbicidal action: 20%
[11]; 100 g AS/ha
  herbicidal action: 60%
[11]; 200 g AS/ha
  herbicidal action: 95%
[11]; 250 g AS/ha
  herbicidal action: 93%
[11]; 400 g AS/ha
  herbicidal action: 95%
[11]; 500 g AS/ha
  herbicidal action: 95%
[11]; dose 100 g AS/ha
  Herbicidal action ALOMY sensitive: 60
[12]; 10 g AS/ha
  herbicidal action: 0%
[12]; 25 g AS/ha
  herbicidal action: 0%
[12]; 50 g AS/ha
  herbicidal action: 10% and 20%
[12]; 100 g AS/ha
  herbicidal action: 60%
[12]; 200 g AS/ha
  herbicidal action: 80%
[12]; 250 g AS/ha
  herbicidal action: 93%
[12]; 400 g AS/ha
  herbicidal action: 95%
[12]; 500 g AS/ha
  herbicidal action: 95%
[12]; dose 100 g AS/ha
  Herbicidal action ALOMY resistant: 60
[13]; 10 g AS/ha
  herbicidal action: 15%
[13]; 25 g AS/ha
  herbicidal action: 40%
[13]; 50 g AS/ha
  herbicidal action: 70%
[13]; 100 g AS/ha
  herbicidal action: 80%
[13]; 200 g AS/ha
  herbicidal action: 90%
[13]; 250 g AS/ha
  herbicidal action: 95%
[13]; 400 g AS/ha
  herbicidal action: 95%
[13]; 500 g AS/ha
  herbicidal action: 95%
[13]; dose 100 g AS/ha
  Herbicidal action VERHE: 80
[14]; 10 g AS/ha
  herbicidal action: 0%
[14]; 25 g AS/ha
  herbicidal action: 0%
[14]; 50 g AS/ha
  herbicidal action: 0%
[14]; 100 g AS/ha
  herbicidal action: 0%
[14]; 200 g AS/ha
  herbicidal action: 5%
[14]; 250 g AS/ha
  herbicidal action: 20%
[14]; 400 g AS/ha
  herbicidal action: 20%
[14]; 500 g AS/ha
  herbicidal action: 20%
[14]; dose 100 g AS/ha
  Herbicidal action BRSNW: 0
[15]; 10 g AS/ha
  herbicidal action: 0%
[15]; 25 g AS/ha
  herbicidal action: 5%
[15]; 50 g AS/ha
  herbicidal action: 60% and 30%
[15]; 100 g AS/ha
  herbicidal action: 70% and 75%
[15]; 200 g AS/ha
  herbicidal action: 80%
[15]; 250 g AS/ha
  herbicidal action: 80%
[15]; 400 g AS/ha
  herbicidal action: 94%
[15]; 500 g AS/ha
  herbicidal action: 94%
[15]; dose 100 g AS/ha
  Herbicidal action LOLRI resistant: 75

## CCOC(=O)C1=NN(c2ccc(Cl)cc2Cl)C(C)(C(=O)OCC)C1 (centres unmarked) [Mefenpyr, ethyl 1-(2,4-dichlorophenyl)-5-(ethoxycarbonyl)-5-methyl-2-pyrazoline-3-carboxylate]
[1]; 300 g AS/ha
  herbicidal action: 0%
[1]; dose 10 g AS/ha
  Herbicidal action RAPRA: 0
[1]; dose 100 g AS/ha
  Herbicidal action RAPRA: 0
[2]; 300 g AS/ha
  herbicidal action: 0%
[2]; dose 10 g AS/ha
  Herbicidal action AVEFA: 0
[2]; dose 100 g AS/ha
  Herbicidal action AVEFA: 0
[4]; 300 g AS/ha
  herbicidal action: 0%
[4]; dose 10 g AS/ha
  Herbicidal action BROST: 0
[4]; dose 100 g AS/ha
  Herbicidal action BROST: 0
[5]; 300 g AS/ha
  herbicidal action: 0%
[5]; dose 10 g AS/ha
  Herbicidal action LOLRI sensitive: 0
[5]; dose 100 g AS/ha
  Herbicidal action LOLRI sensitive: 0
[6]; 300 g AS/ha
  herbicidal action: 0%
[6]; dose 10 g AS/ha
  Herbicidal action EMEAU: 0
[6]; dose 100 g AS/ha
  Herbicidal action EMEAU: 0
[7]; 300 g AS/ha
  herbicidal action: 0%
[7]; dose 10 g AS/ha
  Herbicidal action (crop damage) TRZAS: 0
[7]; dose 100 g AS/ha
  Herbicidal action (crop damage) TRZAS: 0
[8]; 300 g AS/ha
  herbicidal action: 0%
[8]; dose 10 g AS/ha
  Herbicidal action CENCY: 0
[8]; dose 100 g AS/ha
  Herbicidal action CENCY: 0
[9]; 300 g AS/ha
  herbicidal action: 0%
[9]; dose 10 g AS/ha
  Herbicidal action (crop damage) HORVS: 0
[9]; dose 100 g AS/ha
  Herbicidal action (crop damage) HORVS: 0
[10]; 300 g AS/ha
  herbicidal action: 0%
[10]; dose 10 g AS/ha
  Herbicidal action SORHA: 0
[10]; dose 100 g AS/ha
  Herbicidal action SORHA: 0
[11]; 300 g AS/ha
  herbicidal action: 0%
[11]; dose 10 g AS/ha
  Herbicidal action ALOMY sensitive: 0
[11]; dose 100 g AS/ha
  Herbicidal action ALOMY sensitive: 0
[12]; 300 g AS/ha
  herbicidal action: 0%
[12]; dose 10 g AS/ha
  Herbicidal action ALOMY resistant: 0
[12]; dose 100 g AS/ha
  Herbicidal action ALOMY resistant: 0
[13]; 300 g AS/ha
  herbicidal action: 0%
[13]; dose 10 g AS/ha
  Herbicidal action VERHE: 0
[13]; dose 100 g AS/ha
  Herbicidal action VERHE: 0
[14]; 300 g AS/ha
  herbicidal action: 0%
[14]; dose 10 g AS/ha
  Herbicidal action BRSNW: 0
[14]; dose 100 g AS/ha
  Herbicidal action BRSNW: 0
[15]; 300 g AS/ha
  herbicidal action: 0%
[15]; dose 10 g AS/ha
  Herbicidal action LOLRI resistant: 0
[15]; dose 100 g AS/ha
  Herbicidal action LOLRI resistant: 0
